Broadly, the EC50 is the midpoint of the concentration-response curve.

The target in assay [1] is T1, human TGR5 receptor (Homo sapiens, UniProt Q8TDU6).
T1 construct: host or cells: CHO-K1 (hTGR5-CHO cells)
T1 sequence (Q8TDU6 1-330): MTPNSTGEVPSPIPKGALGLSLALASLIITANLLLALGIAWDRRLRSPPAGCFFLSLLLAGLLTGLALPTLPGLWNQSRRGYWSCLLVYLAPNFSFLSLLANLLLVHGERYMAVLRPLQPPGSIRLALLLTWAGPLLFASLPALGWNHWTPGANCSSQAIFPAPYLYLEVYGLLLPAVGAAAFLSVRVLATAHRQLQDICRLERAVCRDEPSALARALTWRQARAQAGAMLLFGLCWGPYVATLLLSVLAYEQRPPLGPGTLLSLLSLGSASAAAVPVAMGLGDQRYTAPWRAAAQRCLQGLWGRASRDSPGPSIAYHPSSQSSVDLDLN
Kind of assay: Human TGR5 cAMP production assay. Conditions: human TGR5, luminescent cAMP assay; coded A-D; read-out: Human TGR5 Lum. cAMP Activity (EC50). It is filed as cell-based. The method in brief: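 Intracellular cAMP read by luminescent enzyme-complementation (XS+) after overnight development, following 1 h room-temperature compound treatment of hTGR5-CHO-K1 cells in IBMX plus anti-cAMP antibody. Compounds tested as half-log dilution series; EC50 derived.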
A general note: Cyclic AMP is a second messenger, typically raised through Gs and lowered through Gi signalling.

The target of assay [2] is T2, mouse TGR5 receptor (Mus musculus, UniProt Q80SS6).
T2 construct: expressed in transfected cells; host or cells: HEK293-EBNA (293 c18, ATCC CRL10852), Hygromycin B selection
T2 sequence (Q80SS6 1-329): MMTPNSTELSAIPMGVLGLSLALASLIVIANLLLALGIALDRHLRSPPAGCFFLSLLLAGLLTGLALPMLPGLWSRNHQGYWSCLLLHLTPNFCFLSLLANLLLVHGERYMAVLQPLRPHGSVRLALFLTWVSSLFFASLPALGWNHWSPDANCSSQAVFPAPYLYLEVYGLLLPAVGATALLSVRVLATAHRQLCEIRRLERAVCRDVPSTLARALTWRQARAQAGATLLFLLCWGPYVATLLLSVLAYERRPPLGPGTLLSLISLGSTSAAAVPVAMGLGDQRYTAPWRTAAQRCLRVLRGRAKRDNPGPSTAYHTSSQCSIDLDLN
Kind of assay: Mouse TGR5 cAMP production assay (luminescent, DiscoveRx cAMP XS+). As to conditions: HEK293-EBNA cells overexpressing mouse TGR5, luminescent cAMP XS+; coded A-D; read-out: Mouse TGR5 Lum. cAMP Activity (EC50). It is filed as cell-based. The source says:
Mouse TGR5 cAMP Production Assay
We evaluated compounds of the present invention for their ability to induce cAMP production in HEK-EBNA cells overexpressing the mouse TGR5 receptor. Human embryonic kidney cells (HEK293-EBNA) stably expressing mouse TGR5 receptor were established using the following procedure. Specifically, a commercially-obtained gene encoding mouse TGR5 (accession number BC116914) from Thermo Scientific (Waltham, Mass.) was cloned into an episomal expression vector. The resulting expression plasmid was then transfected into 293 c18 (ATCC® CRL10852™) cells, which express the Epstein-Barr virus nuclear antigen EBNA1 and can support the replication of episomal vectors. Selection for the plasmid was maintained with Hygromycin B. Cells were cultured and maintained in DMEM (Sigma; cat #6429) supplemented with 10% Fetal Bovine Serum, 1% penicillin/streptomycin, 2 mM L-alanine L-glutamine (GlutaMax), and 250 μg/mL Hygromycin.
Two cAMP production assays were developed.
1. Luminescent cAMP Production Assay
In this first cAMP production assay, the cAMP production was measured using DiscoveRx's cAMP XS+ kit following the manufacturer's recommended protocol.
Briefly, HEK293-EBNA cells stably overexpressing mouse TGR5 were harvested using non-enzymatic cell dissociation buffer (Sigma-Aldrich, St. Louis, Mo.), spun down, then resuspended in serum-free DMEM with 500 μM IBMX at a density of 1.25×10^6 cells/mL. 500 μL of cAMP antibody solution was added to […] of cell suspension and incubated at room temperature for 20 min.
Test compounds were serially diluted (half-log dilutions) in DMSO and then further diluted 1:50 in PBS, 10 mM HEPES buffer. 2 μL of serially diluted compound was added to a 384-well low volume plate (Greiner cat #784075) and centrifuged briefly. 2 μL of the cell/cAMP antibody mixture was then added to each compound-containing well and allowed to incubate at room temperature for one (1) hour. Following incubation, the XS+ kits' ED/Lysis/CL Substrate Working Solution was prepared following the manufacturer's recommended protocol and 4 μL was added to each well of the plate. The plate was then incubated for one (1) hour at room temperature. Following incubation, 4 μL of (Enzyme Acceptor) EA reagent was added to the plate and allowed to incubate overnight at room temperature. Luminescent signal was then detected using the Viewlux instrument (Perkin-Elmer, Waltham, Mass.).
In Table 33, EC50 values for both human and mouse cells were determined according to the TGR5 cAMP assays described above.

Each structure is given as a SMILES string. Bounds are passed on as bounds.

For `COc1cnccc1-c1cccc([C@H](C)NS(=O)(=O)c2cccc(Br)c2)c1` [Compound 2BO], the values for the EC50 in assay [1] and in assay [2] were 0.1 to 0.999 µM and 1 to 30 µM, respectively.

For `Cc1ccc(C(C)(C)NS(=O)(=O)c2cccc(C(F)(F)F)c2)cc1-c1ccncc1` [Compound 1BW], the EC50 is 1 to 30 µM in assay [1] and over 30 µM in assay [2].

With `CC(C)(NS(=O)(=O)c1cccc(C(F)(F)F)c1)c1cccc(-c2ccncc2O)c1` [Compound 1AN], the values for the EC50 in assay [1] and in assay [2] were 0.1 to 0.999 µM and 1 to 30 µM, respectively.

As for `C[C@@H](NS(=O)(=O)c1cccc(C(F)(F)F)c1)c1cccc(-c2ccncc2F)c1` [Compound 1BD], the EC50 in assay [1] lay within 0.1 to 0.999 µM; in assay [2] it was 1 to 30 µM.

As to `COc1cccc(S(=O)(=O)NCc2cccc(-c3c(C)noc3C)c2)c1` [Compound 2AB], the EC50 in assay [1] and in assay [2] was 1 to 30 µM throughout.

For the compound `CC(C)(NS(=O)(=O)c1cccc(C(F)(F)F)c1)c1cccc(-c2ccnc(N)c2)c1` [Compound 1AL], the EC50 in assay [1] fell in the range of 0.1 to 0.999 µM; in assay [2] it was 1 to 30 µM.

Take `Cc1noc(C)c1-c1cccc(CNS(=O)(=O)c2cc(C(F)(F)F)ccc2F)c1` [Compound 2AF]: the figures for the EC50 in assay [1] and in assay [2] were 1 to 30 µM and over 30 µM, respectively.

As for `Cc1noc(C)c1-c1cccc(CNS(=O)(=O)c2cccc(Cl)c2)c1` [Compound 2AA], the EC50 in assay [1] and in assay [2] was 1 to 30 µM each time.

With `O=S(=O)(NCc1cc(Cl)cc(-c2ccncc2)c1)c1cccc(C(F)(F)F)c1` [Compound 1BV], the values for the EC50 in assay [1] and in assay [2] were 1 to 30 µM and over 30 µM, respectively.

On to `CCOc1cnccc1-c1cccc(C(C)(C)NS(=O)(=O)c2cccc(C(F)(F)F)c2)c1` [Compound 8AB, N-(2-(3-(3-ethoxypyridin-4-yl)phenyl)propan-2-yl)-3-(trifluoromethyl)benzenesulfonamide], for which the results for the EC50 in assay [1] and in assay [2] were under 0.1 µM and 0.1 to 0.999 µM, respectively.

Take `CC(C)(NS(=O)(=O)c1cccc(C(F)(F)F)c1)c1cccc(-c2ccnc3ccccc23)c1` [Compound 1AJ]: the EC50 in assay [1] and in assay [2] was 1 to 30 µM in each case.

`COc1cccc(S(=O)(=O)NCc2cccc(-c3ccncc3)c2)c1` [Compound 2AL]: the EC50 in assay [1] was 1 to 30 µM; in assay [2], over 30 µM.

For `O=S(=O)(NCc1ccc(F)c(-c2ccncc2)c1)c1cccc(C(F)(F)F)c1` [Compound 1AS], the EC50 in assay [1] was 0.1 to 0.999 µM; in assay [2], 1 to 30 µM.

As to `CC(C)Oc1cnccc1-c1cccc(C(C)(C)NS(=O)(=O)c2cccc(C(F)(F)F)c2)c1` [Compound 8AA, N-(2-(3-(3-isopropoxypyridin-4-yl)phenyl)propan-2-yl)-3-(trifluoromethyl)benzenesulfonamide], the EC50 in assay [1] and in assay [2] was 0.1 to 0.999 µM each time.

Take `Cc1cccc(S(=O)(=O)NCc2cccc(-c3c(C)noc3C)c2)c1` [Compound 2, N-(3-(3,5-dimethylisoxazol-4-yl)benzyl)-3-methylbenzenesulfonamide]: the EC50 in assay [1] and in assay [2] was 1 to 30 µM each time.

Consider `Cc1cnccc1-c1cccc([C@@H](C)NS(=O)(=O)c2cccc(C(F)(F)F)c2)c1` [Compound 5AH, (R)-N-(1-(3-(3-methylpyridin-4-yl)phenyl)ethyl)-3-(trifluoromethyl)benzenesulfonamide], for which the EC50 in assay [1] was under 0.1 µM; in assay [2], 0.1 to 0.999 µM.

As for `O=S(=O)(NCc1cccc(-c2ccncc2C(F)(F)F)c1)c1cccc(C(F)(F)F)c1` [Compound 1BH], the EC50 in assay [1] and in assay [2] was 1 to 30 µM each time.

As to `Cc1cnccc1-c1cccc(C(C)(C)NS(=O)(=O)c2ccccc2C(F)(F)F)c1` [Compound 5AI, N-(2-(3-(3-methylpyridin-4-yl)phenyl)propan-2-yl)-2-(trifluoromethyl)benzenesulfonamide], the EC50 is under 0.1 µM in assay [1] and 0.1 to 0.999 µM in assay [2].

Consider `Cc1noc(C)c1-c1cccc(CNS(=O)(=O)c2cc(C(F)(F)F)cc(C(F)(F)F)c2)c1` [Compound 2AH], for which the EC50 in assay [1] is 1 to 30 µM; in assay [2], over 30 µM.

As to `C[C@@H](NS(=O)(=O)c1cccc(C(F)(F)F)c1)c1cccc(-c2ccncc2Cl)c1` [Compound 1BC], the EC50 in assay [1] and in assay [2] was 0.1 to 0.999 µM each time.

In the case of `CC(C)(NS(=O)(=O)c1ccccc1C(F)(F)F)c1cccc(-c2ccncc2O)c1` [Compound 1BM], the EC50 in assay [1] is under 0.1 µM; in assay [2], 0.1 to 0.999 µM.

For the compound `O=S(=O)(NCc1cccc(-c2ccncc2)c1)c1cccc(Cl)c1` [Compound 2AJ], the EC50 in assay [1] and in assay [2] was 1 to 30 µM throughout.

`COc1cnccc1-c1cccc(C2(NS(=O)(=O)c3cccc(C(F)(F)F)c3)CC2)c1` [Compound 1BN]: the EC50 in assay [1] and in assay [2] was 0.1 to 0.999 µM in each case.

On to `Cc1noc(C)c1-c1cccc(CNS(=O)(=O)c2ccc(Cl)cc2)c1` [Compound 1AB], for which the results for the EC50 in assay [1] and in assay [2] were 1 to 30 µM and over 30 µM, respectively.

In the case of `Cc1noc(C)c1-c1cccc(CNS(=O)(=O)c2ccc(C(F)(F)F)cc2)c1` [Compound 1AA], the EC50 was 1 to 30 µM in assay [1] and over 30 µM in assay [2].

Consider `O=S(=O)(NCc1cccc(-c2ccncn2)c1)c1cccc(C(F)(F)F)c1` [Compound 1BK], for which the EC50 in assay [1] is 1 to 30 µM; in assay [2] it was over 30 µM.

With `COc1cnccc1-c1cccc(C(C)(C)NS(=O)(=O)c2cc(C(F)(F)F)ccc2OC)c1` [Compound 2AW], the EC50 in assay [1] and in assay [2] was 1 to 30 µM throughout.

`COc1cnccc1-c1cccc([C@@H](C)NS(=O)(=O)c2cccc(C(F)(F)F)c2)c1` [Compound 1BE]: the EC50 in assay [1] and in assay [2] was 0.1 to 0.999 µM throughout.

On to `C[C@H](NS(=O)(=O)c1ccccc1[N+](=O)[O-])c1cccc(-c2ccncc2Cl)c1` [Compound 2BS], for which the EC50 in assay [1] and in assay [2] was 0.1 to 0.999 µM each time.

For `COc1cnccc1-c1cccc(C(C)(C)NS(=O)(=O)c2cccc(Cl)c2)c1` [Compound 2AY], the EC50 in assay [1] and in assay [2] was 0.1 to 0.999 µM in each case.

In the case of `COc1cnccc1-c1cccc(C(C)(C)NS(=O)(=O)c2ccccc2Cl)c1` [Compound 2AX], the EC50 in assay [1] and in assay [2] was 0.1 to 0.999 µM each time.

Take `C[C@@H](NS(=O)(=O)c1cccc(C(F)(F)F)c1)c1cccc(-c2ccncc2)c1` [Compound 1BB]: the EC50 in assay [1] fell in the range of 0.1 to 0.999 µM; in assay [2] it was 1 to 30 µM.

Consider `C[C@H](NS(=O)(=O)c1cccc(C(F)(F)F)c1)c1cccc(-c2ccncc2F)c1` [Compound 1AY], for which the EC50 in assay [1] was in the range of 0.1 to 0.999 µM; in assay [2] it was 1 to 30 µM.

As for `Cc1noc(C)c1-c1cccc(C(C)(C)NS(=O)(=O)c2cccc(C(F)(F)F)c2)c1` [Compound 1AC], the EC50 in assay [1] and in assay [2] was 1 to 30 µM throughout.

With `Cc1cncc(C)c1-c1cccc(C(C)(C)NS(=O)(=O)c2cccc(C(F)(F)F)c2)c1` [Compound 5AD, N-(2-(3-(3,5-dimethylpyridin-4-yl)phenyl)propan-2-yl)-3-(trifluoromethyl)benzenesulfonamide], the EC50 in assay [1] and in assay [2] was 1 to 30 µM throughout.

The record behind these values is patent US11236055B2 (Venenum Biodesign, LLC, priority 2016, dated 2022).
